According to PubChem BioAssay AID743107 (Vanderbilt Specialized Chemistry Center, 2013):
The source made the active and inactive calls.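 Rule for the calls: active = compound leaving under 60% of the human M5 receptor calcium signal; inactive = the rest.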

Molecular target: Muscarinic acetylcholine receptor M5 (Homo sapiens) (UniProt P08912)
Assay: inhibitors of ACh-evoked M5 calcium signal – cell-based, single concentration, CHO-K1 hM5, ACh EC80 (AID 743107)
Conditions: CHO-K1 hM5, calcium flux, at 10 µM, stronger effect = lower value

Chain of Muscarinic acetylcholine receptor M5 (Homo sapiens) (P08912 whole entry, looked up): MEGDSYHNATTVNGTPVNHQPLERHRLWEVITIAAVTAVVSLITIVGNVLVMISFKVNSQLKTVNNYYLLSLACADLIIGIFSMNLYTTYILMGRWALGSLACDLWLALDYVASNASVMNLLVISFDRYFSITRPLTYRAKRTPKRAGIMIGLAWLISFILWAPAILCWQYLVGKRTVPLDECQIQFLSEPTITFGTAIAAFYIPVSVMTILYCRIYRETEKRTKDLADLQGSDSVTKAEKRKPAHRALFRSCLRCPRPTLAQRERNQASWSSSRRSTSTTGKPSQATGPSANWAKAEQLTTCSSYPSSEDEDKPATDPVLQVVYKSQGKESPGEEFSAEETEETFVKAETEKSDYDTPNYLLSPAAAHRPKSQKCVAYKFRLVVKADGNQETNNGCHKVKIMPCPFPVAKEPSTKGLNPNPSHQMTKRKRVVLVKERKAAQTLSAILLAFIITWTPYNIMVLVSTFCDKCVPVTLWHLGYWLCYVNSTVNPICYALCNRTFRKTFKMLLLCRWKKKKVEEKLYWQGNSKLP

SMILES | activity remaining
CC(c1ccccn1)N(C)C(=O)c1cc(CNC(=O)C(C)(C)C)on1 (stereo not given) | 77.8% (inactive)
CC(=O)c1cccc(OCc2cc(C(=O)NCc3ccccn3)no2)c1 | 88.7% (inactive)
COc1cccc(OCc2cc(C(=O)N(C)C(C)c3ccccn3)no2)c1 (stereo not given) | 79.8% (inactive)
CC(c1ccccn1)N(C)C(=O)c1cc(COc2cccc([N+](=O)[O-])c2)on1 (stereo not given) | 73.7% (inactive)
CC(c1ccccn1)N(C)C(=O)c1cc(CNC(=O)C2CCCC2)on1 (stereo not given) | 77.7% (inactive)
CC(=O)c1cccc(OCc2cc(C(=O)N(C)c3ccccn3)no2)c1 | 77.8% (inactive)
CC(c1ccccn1)N(C)C(=O)c1cc(COc2cccc(C=O)c2)on1 (stereo not given) | 83.1% (inactive)
CC(c1ccccn1)N(C)C(=O)c1cc(CNC(=O)c2cccc(F)c2)on1 (stereo not given) | 78.2% (inactive)
Cc1ccccc1OCc1cc(C(=O)N(C)C(C)c2ccccn2)no1 (stereo not given) | 79.9% (inactive)
CC(O)c1cccc(OCc2cc(C(=O)N(C)C(C)c3ccccn3)no2)c1 (stereo not given) | 69.3% (inactive)
CC(c1ccccn1)N(C)C(=O)c1cc(COc2ccccc2Cl)on1 (stereo not given) | 77.2% (inactive)
CC(Cl)c1cccc(OCc2cc(C(=O)N(C)C(C)c3ccccn3)no2)c1 (stereo not given) | 76.1% (inactive)
Cc1ccc(OCc2cc(C(=O)N(C)C(C)c3ccccn3)no2)cc1 (stereo not given) | 78.5% (inactive)
CC(c1ccccn1)N(C)C(=O)c1cc(CNS(C)(=O)=O)on1 (stereo not given) | 80.4% (inactive)
CCN(C(=O)c1cc(COc2cccc(C(C)=O)c2)on1)C(C)c1ccccn1 (stereo not given) | 14.2%
CC(c1ccccn1)N(C)C(=O)c1cc(COc2cccc(Oc3ccccc3)c2)on1 (stereo not given) | 83.1% (inactive)
CC(=O)c1cccc(N(Cc2cc(C(=O)N(C)C(C)c3ccccn3)no2)C(=O)c2ccc(C)cc2)c1 (stereo not given) | 63.5% (inactive)
CC(=O)c1ccc(OCc2cc(C(=O)N(C)C(C)c3ccccn3)no2)cc1 (stereo not given) | 75% (inactive)
COC(=O)c1cccc(OCc2cc(C(=O)N(C)C(C)c3ccccn3)no2)c1 (stereo not given) | 67.3% (inactive)
CC(=O)c1cccc(OCc2cc(C(=O)Nc3ccccn3)no2)c1 | 77.1% (inactive)

SMILES | activity remaining
CC(c1ccccn1)N(C)C(=O)c1cc(COc2ccc(F)cc2)on1 (stereo not given) | 82.2% (inactive)
CC(c1ccccn1)N(C)C(=O)c1cc(CNC(=O)c2ccccc2F)on1 (stereo not given) | 71.8% (inactive)
CC(=O)c1ccccc1OCc1cc(C(=O)N(C)C(C)c2ccccn2)no1 (stereo not given) | 80.4% (inactive)
CC(c1ccccn1)N(C)C(=O)c1cc(CNC(=O)c2ccccc2)on1 (stereo not given) | 76.7% (inactive)
CC(=O)c1cccc(OCc2cc(C(=O)N3CCc4ccccc4C3C)no2)c1 (stereo not given) | 81.5% (inactive)
CC(c1ccccn1)N(C)C(=O)c1cc(COc2ccc(Cl)cc2)on1 (stereo not given) | 84.2% (inactive)
COc1ccccc1C(=O)N(Cc1cc(C(=O)N(C)C(C)c2ccccn2)no1)c1cccc(C(C)=O)c1 (stereo not given) | 73.8% (inactive)
CC(=O)c1cccc(N(Cc2cc(C(=O)N(C)C(C)c3ccccn3)no2)C(=O)c2ccc(F)cc2)c1 (stereo not given) | 71.8% (inactive)
CC(=O)c1cccc(N(Cc2cc(C(=O)N(C)C(C)c3ccccn3)no2)C(C)=O)c1 (stereo not given) | 70.4% (inactive)
CC(=O)c1cccc(N(Cc2cc(C(=O)N(C)C(C)c3ccccn3)no2)C(=O)c2cccc(C)c2)c1 (stereo not given) | 65.5% (inactive)
CC(=O)c1cccc(N(Cc2cc(C(=O)N(C)C(C)c3ccccn3)no2)C(=O)C(C)(C)C)c1 (stereo not given) | 73.9% (inactive)
CC(=O)c1cccc(OCc2cc(C(=O)N(C)Cc3ccccc3)no2)c1 | 76.6% (inactive)
CC(=O)c1cccc(N(Cc2cc(C(=O)N(C)C(C)c3ccccn3)no2)C(=O)C2CCCC2)c1 (stereo not given) | 66% (inactive)
CC(=O)c1cccc(OCc2cc(C(=O)N(C)c3cccc4cccnc34)no2)c1 | 74.2% (inactive)
CC(=O)c1cccc(N(Cc2cc(C(=O)N(C)C(C)c3ccccn3)no2)C(=O)c2ccccc2F)c1 (stereo not given) | 74.8% (inactive)
CC(=O)c1cccc(N(Cc2cc(C(=O)N(C)C(C)c3ccccn3)no2)C(=O)c2ccccc2)c1 (stereo not given) | 69.6% (inactive)
COc1ccccc1C(=O)NCc1cc(C(=O)N(C)C(C)c2ccccn2)no1 (stereo not given) | 76.4% (inactive)
CC(=O)c1cccc(OCc2cc(C(=O)N3CCc4cccnc4C3)no2)c1 | 86.8% (inactive)
CC(c1ccccn1)N(C)C(=O)c1cc(COc2cccc(F)c2)on1 (stereo not given) | 77.1% (inactive)
CC(=O)c1cccc(OCc2cc(C(=O)N(C)C(C)c3cccnc3)no2)c1 (stereo not given) | 78.2% (inactive)

SMILES | activity remaining
CC(=O)c1cccc(N(Cc2cc(C(=O)N(C)C(C)c3ccccn3)no2)C(=O)c2ccccc2C)c1 (stereo not given) | 67.2% (inactive)
CC(=O)c1cccc(OCc2cc(C(=O)NC(c3ccccn3)C(F)(F)F)no2)c1 (stereo not given) | 72.6% (inactive)
CC(c1ccccn1)N(C)C(=O)c1cc(COc2cccc(Br)c2)on1 (stereo not given) | 71.7% (inactive)
CC(=O)c1cccc(OCc2cc(C(=O)N(C)C(C)c3ccncc3)no2)c1 (stereo not given) | 80.9% (inactive)
CCOc1cccc(OCc2cc(C(=O)N(C)C(C)c3ccccn3)no2)c1 (stereo not given) | 79.2% (inactive)
CC(=O)c1cccc(N(Cc2cc(C(=O)N(C)C(C)c3ccccn3)no2)S(=O)(=O)c2ccccc2[N+](=O)[O-])c1 (stereo not given) | 60.6% (inactive)
CC(c1ccccn1)N(C)C(=O)c1cc(COc2ccc(F)c(F)c2)on1 (stereo not given) | 85.3% (inactive)
CC(=O)c1cccc(NCc2cc(C(=O)N(C)C(C)c3ccccn3)no2)c1 (stereo not given) | 21.4%
CC(c1ccccn1)N(C)C(=O)c1cc(COc2ccccc2F)on1 (stereo not given) | 83.7% (inactive)
CC(c1ccccn1)N(C)C(=O)c1cc(COc2ccc3c(c2)CCCC3)on1 (stereo not given) | 79% (inactive)
Cc1ccccc1C(=O)NCc1cc(C(=O)N(C)C(C)c2ccccn2)no1 (stereo not given) | 73.8% (inactive)
COc1ccc(OCc2cc(C(=O)N(C)C(C)c3ccccn3)no2)cc1 (stereo not given) | 82.8% (inactive)
CC(=O)c1cccc(N(Cc2cc(C(=O)N(C)C(C)c3ccccn3)no2)C(=O)c2cccc(F)c2)c1 (stereo not given) | 70% (inactive)
CC(=O)c1cccc(OCc2cc(C(=O)N(C)C(C)c3ccccc3)no2)c1 (stereo not given) | 52.9%
CC(c1ccccn1)N(C)C(=O)c1cc(COc2cccc(C(F)(F)F)c2)on1 (stereo not given) | 84.1% (inactive)
Cc1cccc(C(=O)NCc2cc(C(=O)N(C)C(C)c3ccccn3)no2)c1 (stereo not given) | 71.5% (inactive)
CC(c1ccccn1)N(C)C(=O)c1cc(CNC(=O)c2ccc(F)cc2)on1 (stereo not given) | 77% (inactive)
Cc1ccc(C(=O)NCc2cc(C(=O)N(C)C(C)c3ccccn3)no2)cc1 (stereo not given) | 75.1% (inactive)
CC(c1ccccn1)N(C)C(=O)c1cc(COc2cccc(CO)c2)on1 (stereo not given) | 75.5% (inactive)
CC(=O)NCc1cc(C(=O)N(C)C(C)c2ccccn2)no1 (stereo not given) | 76.8% (inactive)
